Molecules are shown by their SMILES. Structures can show the parent of a compound that is named as a salt.

In the experiment the target is T1, human vasopressin V1b receptor (Homo sapiens, UniProt P47901).
T1 construct: expressed in transfected cells; host or cells: CHO-K1 (cell line hV1b_3H2_CHO), membrane preparation
T1 sequence (P47901 1-424): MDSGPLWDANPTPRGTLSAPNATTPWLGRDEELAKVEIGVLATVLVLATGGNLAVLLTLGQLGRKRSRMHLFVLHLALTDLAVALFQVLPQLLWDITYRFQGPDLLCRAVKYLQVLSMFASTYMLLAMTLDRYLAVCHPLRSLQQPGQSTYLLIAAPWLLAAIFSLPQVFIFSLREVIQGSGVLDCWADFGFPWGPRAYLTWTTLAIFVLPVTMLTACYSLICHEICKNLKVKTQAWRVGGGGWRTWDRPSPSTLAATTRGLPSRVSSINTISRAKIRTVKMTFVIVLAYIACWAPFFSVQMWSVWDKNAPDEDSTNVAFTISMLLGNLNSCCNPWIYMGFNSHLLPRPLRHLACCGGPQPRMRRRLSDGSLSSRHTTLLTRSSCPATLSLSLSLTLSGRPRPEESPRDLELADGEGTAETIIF
As to the kind of experiment: Vasopressin V1b receptor binding test. As to conditions: membranes of CHO-K1 cells, displacement of 1.5 nM 3H-AVP. As to the method: • Vasopressin V1b Receptor Binding Test: • Substances:
The test substances were dissolved at a concentration of 10^−2 M in DMSO and diluted further in DMSO to 5×10^−4 M to 5×10^−9 M. These DMSO solutions were diluted 1:10 with test buffer. The concentration of substance was again diluted 1:5 in the test preparation.
The membrane pellet was homogenized and centrifuged again as described, and then taken up in 50 mM Tris-HCl, pH 7.4, homogenized and, frozen in aliquots, stored at −190° C. in liquid nitrogen.
The incubation buffer was: 50 mM Tris, 10 mM MgCl2, 0.1% BSA, pH 7.4. […] The nonspecific binding was determined with 1 μM AVP (Bachem #H1780). All determinations were performed in triplicate. After incubation (60 minutes at room temperature), the free radioligand was filtered off by vacuum filtration (Skatron cell harvester 7000) on Whatman GF/B glass-fibre filter mats and the filters were transferred to scintillation vessels. Liquid scintillation measurement was performed in a Tricarb instrument, Model 2000 or 2200CA (Packard). Conversion of the measured cpm to dpm was performed with the aid of a standard quench series.
The binding parameters were calculated by nonlinear regression in SAS.
For the compounds according to the invention, the affinities for the human vasopressin receptor V1b were measured according to the above test and the affinity constant (Ki) was determined.
`COc1ccc(S(=O)(=O)N2C(=O)C(c3ccccc3OC)(N3CCN(c4ccncc4)CC3)c3cc(Cl)ccc32)cc1OC` (stereo not shown) [Example 12, 5-Chloro-1-(3,4-dimethoxy-benzenesulphonyl)-3-(2-methoxyphenyl)-3-(4-pyridin-4-yl-piperazin-1-yl)-1,3-dihydro-indol-2-one]: the Ki (as a rule, the dissociation constant of the complex between target and ligand, obtained from inhibition or displacement) fell in the range of 50 to 500 nM.
`CCOc1ccc(OC)cc1C1(N2CCN(c3ccnc(C(C)C)c3)CC2)C(=O)N(S(=O)(=O)c2ccc(OC)cc2OC)c2ccc(C#N)cc21` (racemic) [Example 92, (±)-5-Cyano-1-(2,4-dimethoxy-benzenesulphonyl)-3-(2-ethoxy-5-methoxyphenyl)-3-[4-(2-isopropyl-pyridin-4-yl)-piperazin-1-yl]-2,3-dihydro-1H-indol-2-one] showed an inhibition constant (Ki) of under 50 nM.
Under `CCOc1ccccc1C1(N2CCN(c3ccncc3)CC2)C(=O)N(S(=O)(=O)c2ccc(OC(C)C)cc2)c2ccc(C#N)cc21` (stereo not shown) [Example 113, 5-Cyano-3-(2-ethoxyphenyl)-1-(4-isopropoxybenzenesulphonyl)-3-(4-pyridin-4-yl-piperazin-1-yl)-2,3-dihydro-1H-indol-2-one×trifluoroacetic acid] stands 50 to 500 nM; under `CCOc1ccccc1C1(N2CCN(c3ccncc3)CC2)C(=O)N(S(=O)(=O)c2ccc(NC(C)=O)cc2)c2ccc(C#N)cc21` (stereo not shown) [Example 46, N-{4-[5-Cyano-3-(2-ethoxyphenyl)-2-oxo-3-(4-pyridin-4-yl-piperazin-1-yl)-2,3-dihydro-indole-1-sulphonyl]-phenyl}-acetamide], 50 to 500 nM.
`CCOc1ccccc1C1(N2CCN(c3ccnc(CC)c3)CC2)C(=O)N(S(=O)(=O)c2ccc(OC)cc2OC)c2ccc(C#N)cc21` (racemic) [Example 93, (±)-5-Cyano-1-(2,4-dimethoxy-benzenesulphonyl)-3-(2-ethoxyphenyl)-3-[4-(2-ethyl-pyridin-4-yl)-piperazin-1-yl]-2,3-dihydro-1H-indol-2-one] showed a Ki of under 50 nM.
Molecule `CCOc1ccc(OC)cc1C1(N2CC3CN(c4ccncc4)CC3C2)C(=O)N(S(=O)(=O)c2ccc(OC)cc2OC)c2ccc(C#N)cc21` (stereo not shown) [Example 58, 5-Cyano-1-(2,4-dimethoxy-benzenesulphonyl)-3-(2-ethoxy-5-methoxyphenyl)-3-(5-pyridin-4-yl-hexahydro-pyrrolo[3,4-c]pyrrol-2-yl)-2,3-dihydro-1H-indol-2-one] came in with a Ki of under 50 nM.
In the case of `CCOc1ccc(OC)cc1C1(N2CCN(c3ccncc3)CC2)C(=O)N(S(=O)(=O)c2ccc(OC)cc2OC)c2ccc(C#N)cc21` (stereo not shown) [Example 55, 5-Cyano-1-(2,4-dimethoxy-benzenesulphonyl)-3-(2-ethoxy-5-methoxyphenyl)-3-(4-pyridin-4-yl-piperazin-1-yl)-2,3-dihydro-1H-indol-2-one] it was under 50 nM; in that of `COc1ccc(S(=O)(=O)N2C(=O)C(c3cc(OC)ccc3OC(C)C)(N3CCN(c4ccncc4)CC3)c3cc(C#N)ccc32)c(OC)c1` (stereo not shown) [Example 53, 5-Cyano-1-(2,4-dimethoxy-benzenesulphonyl)-3-(2-isopropoxy-5-methoxyphenyl)-3-(4-pyridin-4-yl-piperazin-1-yl)-2,3-dihydro-1H-indol-2-one], 50 to 500 nM; in that of `COc1ccccc1C1(N2CCN(c3ccncc3)CC2)C(=O)N(S(=O)(=O)c2ccc(Cl)cc2)c2ccc(Cl)cc21` (stereo not shown) [Example 18, 5-Chloro-1-(4-chloro-benzenesulphonyl)-3-(2-methoxyphenyl)-3-(4-pyridin-4-yl-piperazin-1-yl)-1,3-dihydro-indol-2-one], 50 to 500 nM.
In the case of `COc1ccc(S(=O)(=O)N2C(=O)C(c3cc(F)ccc3OC)(N3CCN(c4ccncc4)CC3)c3cc(C#N)ccc32)c(OC)c1` (racemic) [Example 65, (±)-5-Cyano-1-(2,4-dimethoxy-benzenesulphonyl)-3-(5-fluoro-2-methoxyphenyl)-3-(4-pyridin-4-yl-piperazin-1-yl)-2,3-dihydro-1H-indol-2-one] it was 50 to 500 nM; in that of `COc1ccc(C2(N3CCN(c4ccncc4)CC3)C(=O)N(S(=O)(=O)c3ccc(OC)cc3OC)c3ccc(Cl)cc32)c(OC)c1` (stereo not shown) [Example 30, 5-Chloro-1-(2,4-dimethoxy-benzenesulphonyl)-3-(2,4-dimethoxyphenyl)-3-(4-pyridin-4-yl-piperazin-1-yl)-1,3-dihydro-indol-2-one, HCl salt], under 50 nM; in that of `CCOc1ccccc1C1(N2CCN(c3ccncc3)CC2)C(=O)N(S(=O)(=O)c2ccc(C#N)cc2F)c2ccc(C#N)cc21` (racemic) [Example 68, (±)-5-Cyano-1-(4-cyano-2-fluoro-benzenesulphonyl)-3-(2-ethoxyphenyl)-3-(4-pyridin-4-yl-piperazin-1-yl)-2,3-dihydro-1H-indol-2-one], 50 to 500 nM.
Under `CCOc1ccc(OC)cc1C1(N2CCN(c3ccncc3)CC2)C(=O)N(S(=O)(=O)c2ccc(OC)cc2)c2ccc(C#N)cc21` (stereo not shown) [Example 62, 5-Cyano-3-(2-ethoxy-5-methoxyphenyl)-1-(4-methoxy-benzenesulphonyl)-3-(4-pyridin-4-yl-piperazin-1-yl)-2,3-dihydro-1H-indol-2-one] stands under 50 nM.
The molecule `CCOc1ccccc1C1(N2CCN(c3cccnc3)CC2)C(=O)N(S(=O)(=O)c2ccc(OC)cc2OC)c2ccc(C#N)cc21` (stereo not shown) [Example 2, 5-Cyano-1-(2,4-dimethoxy-benzenesulphonyl)-3-(2-ethoxyphenyl)-3-(4-pyridin-3-yl-piperazin-1-yl)-2,3-dihydro-1H-indol-2-one] yielded a Ki of 50 to 500 nM.
Under `CCOc1ccccc1C1(N2CCN(c3ccncc3)CC2)C(=O)N(S(=O)(=O)c2ccc(OC)cc2OC)c2ccc(-c3ccco3)cc21` (stereo not shown) [Example 47, 1-(2,4-Dimethoxy-benzenesulphonyl)-3-(2-ethoxyphenyl)-5-furan-2-yl-3-(4-pyridin-4-yl-piperazin-1-yl)-1,3-dihydro-indol-2-one] stands 50 to 500 nM; under `COCc1ccccc1C1(N2CCN(c3ccncc3)CC2)C(=O)N(S(=O)(=O)c2ccc(OC)cc2OC)c2ccc(Cl)cc21` (stereo not shown) [Example 32, 5-Chloro-1-(2,4-dimethoxy-benzenesulphonyl)-3-(2-methoxymethylphenyl)-3-(4-pyridin-4-yl-piperazin-1-yl)-1,3-dihydro-indol-2-one], 50 to 500 nM.
Under `CCOc1ccccc1C1(N2CCN(c3ccncc3)CC2)C(=O)N(S(=O)(=O)c2ccc(C(C)(C)C)cc2)c2ccc(C#N)cc21` (racemic) [Example 80, (±)-5-Cyano-1-(4-tert-butyl-benzenesulphonyl)-3-(2-ethoxyphenyl)-3-(4-pyridin-4-yl-piperazin-1-yl)-2,3-dihydro-1H-indol-2-one] stands 50 to 500 nM; under `CCOc1ccc(S(=O)(=O)N2C(=O)C(c3ccccc3OCC)(N3CCN(c4ccncc4)CC3)c3cc(C#N)ccc32)c(OC)c1` (racemic) [Example 77, (±)-5-Cyano-1-(4-ethoxy-2-methoxy-benzenesulphonyl)-3-(2-ethoxyphenyl)-3-(4-pyridin-4-yl-piperazin-1-yl)-2,3-dihydro-1H-indol-2-one hydrochloride], 50 to 500 nM.
In the case of `COc1ccc(S(=O)(=O)N2C(=O)C(c3ccccc3OC)(N3CC4CN(c5ccncc5)CC4C3)c3cc(Cl)ccc32)c(OC)c1` (stereo not shown) [Example 19, 5-Chloro-1-(2,4-dimethoxy-benzenesulphonyl)-3-(2-methoxyphenyl)-3-(5-pyridin-4-yl-hexahydro-pyrrolo[3,4-c]pyrrol-2-yl)-1,3-dihydro-indol-2-one] it was under 50 nM; in that of `CCOc1ccccc1C1(N2CCN(c3ccnc(C)c3)CC2)C(=O)N(S(=O)(=O)c2ccc(OC)cc2OC)c2ccc(C#N)cc21` (stereo not shown) [Example 35, 5-Cyano-1-(2,4-dimethoxy-benzenesulphonyl)-3-(2-ethoxyphenyl)-3-[4-(2-methyl-pyridin-4-yl)-piperazin-1-yl]-2,3-dihydro-1H-indol-2-one], 50 to 500 nM.
Regarding `CCOc1ccc(OC)cc1C1(N2CCN(c3ccnc(C)c3)CC2)C(=O)N(S(=O)(=O)c2ccc(OC)cc2OC)c2ccc(C#N)cc21` (stereo not shown) [Example 50, 5-Cyano-1-(2,4-dimethoxy-benzenesulphonyl)-3-(2-ethoxy-5-methoxyphenyl)-3-[4-(2-methyl-pyridin-4-yl)-piperazin-1-yl]-2,3-dihydro-1H-indol-2-one], the Ki is under 50 nM.
In turn, `CCOc1ccc(OC)cc1C1(N2C[C@@H]3C[C@H]2CN3c2ccncc2)C(=O)N(S(=O)(=O)c2ccc(OC)cc2OC)c2ccc(C#N)cc21` (stereo partly drawn) [Example 52, 5-Cyano-1-(2,4-dimethoxy-benzenesulphonyl)-3-(2-ethoxy-5-methoxyphenyl)-3-((1S,4S)-5-pyridin-4-yl-2,5-diaza-bicyclo[2.2.1]hept-2-yl)-2,3-dihydro-1H-indol-2-one] returned an inhibition constant Ki of under 50 nM.

The record behind these values is US8431567B2 (Abbott GmbH & Co. KG, priority 2006, dated 2013).
